Results: publication PMC6994260 (Nature chemistry, 2019)

Assays:
[1] = molecular target: T1, signal peptidase IB (SpsB) (Staphylococcus aureus, UniProt Q5HHB9); experiment: FRET-peptide cleavage by endogenous SpsB in S. aureus membranes; type: biochemical; conditions: activator; 50 uM compound, 0.2 mg/mL total membrane protein
T1 sequence (Q5HHB9 1-191): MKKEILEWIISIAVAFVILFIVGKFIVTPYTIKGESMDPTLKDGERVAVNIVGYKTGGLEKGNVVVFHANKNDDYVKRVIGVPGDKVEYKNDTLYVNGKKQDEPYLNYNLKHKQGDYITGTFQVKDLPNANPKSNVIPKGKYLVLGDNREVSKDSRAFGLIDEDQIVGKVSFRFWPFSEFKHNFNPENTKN

[2] = molecular target: T2, demethylmenaquinone methyltransferase (MenG) (Staphylococcus aureus, UniProt P67062); conditions: labelled compound; DMK-2 as acceptor, 80 min
T2 sequence (P67062 1-241): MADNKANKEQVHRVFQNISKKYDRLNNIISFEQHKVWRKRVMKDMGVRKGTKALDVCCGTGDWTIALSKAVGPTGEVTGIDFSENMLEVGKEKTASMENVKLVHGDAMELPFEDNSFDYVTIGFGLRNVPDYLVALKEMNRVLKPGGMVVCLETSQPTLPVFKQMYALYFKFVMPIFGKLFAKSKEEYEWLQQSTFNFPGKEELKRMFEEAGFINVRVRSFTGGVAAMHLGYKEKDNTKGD

[3] = molecular target: T2, demethylmenaquinone methyltransferase (MenG); experiment: MenG methylation assay in lysate; type: biochemical; conditions: inhibitor; SAM and DMK-2 as substrates, 80 min
[4] = molecular target: T2, demethylmenaquinone methyltransferase (MenG); experiment: LC-MS of menaquinone-2 formed in lysate; type: biochemical; conditions: S-adenosyl-L-methionine as methyl donor, 80 min

Row | SMILES | SpsB activity (normalized) at 50 μM [1] | % MenG activity of DMSO control [3] | other results
1 | O=C(Nc1ccc2c(c1)OCO2)Nc1ccc(Cl)c(C(F)(F)F)c1 [1-159] | 1.40 ± 0.01 fold of DMSO control | – | –
2 | O=C(Nc1ccc(Cl)c(C(F)(F)F)c1)Nc1cccc2c1OC(F)(F)O2 [1-164] | 1.42 ± 0.08 fold of DMSO control | – | –
3 | C[S+](CC[C@H](N)C(=O)O)C[C@H]1O[C@@H](n2cnc3c(N)ncnc32)[C@H](O)[C@@H]1O (stereo partly drawn) [SAM, S-adenosyl-L-methionine] | – | – | [3H]methyl transfer to DMK-2, liquid scintillation counting [2]: radiolabelled methyl group of cofactor S-adenosyl-L-methionine
4 | CNC(=O)c1cc(Oc2ccc(NC(=O)Nc3ccc(Cl)c(C(F)(F)F)c3)cc2)ccn1 [SFN, sorafenib] | 1.64 ± 0.12 fold of DMSO control | SFN caused a weaker inhibition in these assays | –
5 | CC(C)=CCC/C(C)=C/CC1=CC(=O)c2ccccc2C1=O [DMK-2, demethylmenaquinone-2] | – | – | LC-MS of menaquinone-2 formed in lysate [4]: methylation of non-naturally occurring demethylmenaquinone-2 by lysates of MenG-overexpressing and wild type S. aureus
6 | O=C(Nc1ccc2c(c1)OC(F)(F)O2)Nc1ccc(Cl)c(C(F)(F)F)c1 [PK150] | 2.54 ± 0.39 fold of DMSO control | Menaquinone-2 synthesis was enhanced in MenG-overexpressing cells and again significantly inhibited by PK150 | –
